Experiments:
Assay type in all cases: cell-based
[1] = system: fetal hemoglobin (HbF) in GCSF-mobilized human CD34+ cells; experiment: HbF Induction Assay; settings: 168 h; compound 1 μM, 7 days, erythroid-differentiated human CD34+ cells, flow cytometry; DMSO baseline 15% HbF positive cells
Experimental: The expansion, differentiation, and maturation of GCSF-mobilized human CD34^+ (STEMCELL Technologies Inc.) cells towards erythroid lineage cells were performed using a two-phase liquid culture model (Moutouh-de Parseval L A, el al. Pomalidomide and lenalidomide regulate erythropoiesis and fetal hemoglobin production in human CD34+ cells. J Clin Invest. 2008 January; 118(1):248-58). In the first phase, GCSF-mobilized human CD34^+ cells were cultured using StemSpan™-XF (STEMCELL Technologies Inc.) media supplemented with 1×BIT 9500, Penicillin-Streptomycin (50 U/mL), 100 ng/mL recombinant human (rh) SCF, 100 ng/mL rh Flt3-L, 20 ng/mL rh IL-3 and 10 ng/mL rh EPO and the growth of cells maintained in exponential phase for 7 days at 37° C. with 5% CO2 to support expansion and progenitor differentiation prior the second phase and treatment with compounds. In the second phase, culture media was changed to StemSpan™-XF media supplemented with 1×BIT 9500, Penicillin-Streptomycin (50 U/mL), 50 ng/mL rh SCF and 40 ng/mL rh EPO to promote further differentiation and maturation of the erythrocytes and to initiate treatment with compounds. Compounds were dispensed in duplicate at a final concentration of 1 μM in a final DMSO amount of 0.1%. Fresh compound was reapplied, and cell density was kept constant every 2 days. After 7 days, the cells were assessed for viability and fetal hemoglobin expression using flow cytometry. For viability analysis, eBioscience™ Fixable Viability Dye eFluor™ 780 (1:1000, eBioscience; Cat #65-0865-14) was added to the cells and kept in the dark for 10 minutes. For analysis of fetal hemoglobin (HbF), cells were fixed and permeabilized using Fixation Buffer (BioLegend; Cat #420801 and Intracellular staining permeabilization buffer (BioLegend, Cat #420201) following manufacturer's instructions. During permeabilization step, cells were stained with PE-labelled Mouse Anti-Human Fetal Hemoglobin (1:10, clone 2D12; BD Biosciences, Cat #BDB560041) incubated at room temperature for 20 minutes and protected from light. PE-labelled Mouse anti-IgG k, (1:10 clone MOPC-21; BD Biosciences, Cat# BDB551436) was used as an isotype control.
Viability, cell count, and fetal hemoglobin (HbF) levels were measured using an Attune NXT flow cytometer (Thermofisher) and the data analyzed using the FCS express software (De Novo Software). In Table 1 below, the effects of compounds of formula (I), formula (I′), formula (II), formula (II′), and formula (III) on % viable cells, viable cell count, on the % HbF positive cells and the median fluorescent intensity (MFI) of the HbF positive cell population compared to the DMSO controls can be viewed. All gates were set using the isotype negative control. The baseline % HbF positive cells for DMSO-treated control cells was 15%. Compounds of formula (I), formula (I′), formula (II), formula (II′), and formula (III) having HbF induction between 66% and 100% are level A. Compounds of formula (I), formula (I′), formula (II), formula (II′), and formula (III) having HbF induction between 33% and 66% are level B. Compounds of formula (I), formula (I′), formula (II), formula (II′), and formula (III) having HbF induction % less than 33% are level C. For certain compounds of formula (I), formula (I′), formula (II), formula (II′), and formula (III) % HbF induction values 0-33% (activity level C), between 33% and 66% (activity level B), and between 67% and 100% (activity level A) are shown in Table 2 below.

[2] = biological target: WIZ (Widely interspaced zinc finger) (Homo sapiens (Human), UniProt O95785+Q96SW2); experiment: HUDEP-2 WIZ HiBiT degradation assay; settings: HUDEP-2 WIZ HiBiT cells, 24 hours treatment, luminescence; for DC50: read-out: WIZ EC50
Experimental: (§1) The HiBiT degradation assay for WIZ and ZBTB7A in HUDEP-2 cells was performed as described below. HUDEP-2 cells engineered to express a HiBiT tag in either the WIZ (Widely interspaced zinc finger) or ZBTB7A (Zinc Finger And BTB Domain Containing 7A) proteins were maintained in low attachment flasks in StemSpan SFEM II media supplemented with Penicillin-Streptomycin (50 U/mL), rhSCF (50 ng/mL), rhEPO (3 IU/mL), dexamethasone (0.4 μg/mL) and doxycycline (1 μg/mL). Prior to start of the assay, cell count and viability were measured by trypan blue exclusion using the Vi-cell XR cell viability analyzer. For the HUDEP-2 WIZ HiBiT assay, cells were transferred to a 50 mL conical and centrifuged at 500 g for five minutes. Cells were resuspended in fresh StemSpan SFEM II media supplemented with Penicillin-Streptomycin (50 U/mL), rhSCF (50 ng/mL), rhEPO (3 IU/mL), dexamethasone (0.4 μg/mL) and doxycycline (1 μg/mL) at a density of 1.0×10^6 cells/ml. Forty microliters of cell suspension was dispensed into 384-well Low Flange White Flat Bottom Polystyrene TC-treated Microplates containing pre-dispensed compounds, using a VIAFLO 384 liquid hander, and placed in a 37° C. incubator with 5% CO2. […] After 24 hours of treatment, 40 μL Nano-Glo HiBiT Lytic Detection System reagent was dispensed into each well using a VIAFLO 384 liquid hander. Plates were incubated for 25 minutes at room temperature and the luminescence was read as relative luminescent units using the EnVision plate reader. EC50 and Y-min values were calculated using curves calculated from dotmatics software after the normalization to the DMSO control of 10 different concentrations: 10, 3.33, 1.11, 0.37, 0.12, 0.04 0.0137, 0.0046, 0.0015 and 0.0005 μM respectively.

[3] = biological target: ZBTB7A (Zinc Finger And BTB Domain Containing 7A) (Homo sapiens (Human), UniProt O95365+Q96SW2); experiment: HUDEP-2 ZBTB7A HiBiT degradation assay; settings: HUDEP-2 ZBTB7A HiBiT cells, 24 hours treatment, luminescence; for DC50: read-out: ZBTB7A EC50
Experimental: as §1
For the HUDEP-2 ZBTB7A HiBiT assay, cell count and viability were measured by trypan blue exclusion using the Vi-cell XR cell viability analyzer and the cells were transferred to a 50 mL conical and centrifuged at 500 g for five minutes. Cells were resuspended in fresh IMDM media supplemented with L-Glutamine (1×), Penicillin-Streptomycin (50 U/mL), holo-transferrin (330 μg/mL), heparin (2 IU/mL), r-human Insulin (10 μg/mL), rhEPO (3 IU/mL), rhSCF (100 ng/mL)+Dox (1 μg/mL) and 5% human plasma in low attachment flasks, which were placed in a 37° C. incubator with 5% CO2. After 48 hours, cell count and viability were measured by trypan blue exclusion using the Vi-cell XR cell viability analyzer. The HUDEP-2 ZBTB7A cells were transferred to a 50 mL conical, centrifuged at 500 g for five minutes and resuspended at a density of 1.0×10^6 cells/ml in IMDM media supplemented with L-Glutamine (1×), Penicillin-Streptomycin (50 U/mL), holo-transferrin (330 μg/mL), heparin (2 IU/mL), r-human Insulin (10 μg/mL), rhEPO (3 IU/mL), rhSCF (100 ng/mL)+Dox (1 μg/mL) and 5% human plasma. Forty microliters of cell suspension was dispensed into 384-well Low Flange White Flat Bottom Polystyrene TC-treated Microplates containing pre-dispensed compounds, using a VIAFLO 384 liquid hander, and placed in a 37° C. incubator with 5% CO2. […] After 24 hours of treatment, 40 μL Nano-Glo HiBiT Lytic Detection System reagent was dispensed into each well using a VIAFLO 384 liquid hander. Plates were incubated for 25 minutes at room temperature and the luminescence was read as relative luminescent units using the EnVision plate reader. EC50 and Y-min values were calculated using curves calculated from dotmatics software after the normalization to the DMSO control of 10 different concentrations: 10, 3.33, 1.11, 0.37, 0.12, 0.04 0.0137, 0.0046, 0.0015 and 0.0005 μM respectively.

Sequence of ZBTB7A (Zinc Finger And BTB Domain Containing 7A) (O95365 whole entry, the tested form may be a part): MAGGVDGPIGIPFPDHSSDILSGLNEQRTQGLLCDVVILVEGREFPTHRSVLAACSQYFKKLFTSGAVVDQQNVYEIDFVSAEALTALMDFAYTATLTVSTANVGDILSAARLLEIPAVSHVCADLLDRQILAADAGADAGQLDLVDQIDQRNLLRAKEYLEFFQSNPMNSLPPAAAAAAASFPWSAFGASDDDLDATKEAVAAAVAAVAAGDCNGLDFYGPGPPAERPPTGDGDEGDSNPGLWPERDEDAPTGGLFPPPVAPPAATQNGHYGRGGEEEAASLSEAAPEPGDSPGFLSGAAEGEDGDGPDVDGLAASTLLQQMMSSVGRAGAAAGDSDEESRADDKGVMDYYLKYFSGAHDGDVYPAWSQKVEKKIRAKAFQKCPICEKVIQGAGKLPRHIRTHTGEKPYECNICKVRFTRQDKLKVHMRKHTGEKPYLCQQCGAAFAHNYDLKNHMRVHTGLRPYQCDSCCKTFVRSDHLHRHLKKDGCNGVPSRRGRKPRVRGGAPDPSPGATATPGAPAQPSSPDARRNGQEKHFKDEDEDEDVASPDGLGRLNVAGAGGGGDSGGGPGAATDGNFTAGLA
Sequence of ZBTB7A (Zinc Finger And BTB Domain Containing 7A) (Q96SW2 whole entry, the tested form may be a part): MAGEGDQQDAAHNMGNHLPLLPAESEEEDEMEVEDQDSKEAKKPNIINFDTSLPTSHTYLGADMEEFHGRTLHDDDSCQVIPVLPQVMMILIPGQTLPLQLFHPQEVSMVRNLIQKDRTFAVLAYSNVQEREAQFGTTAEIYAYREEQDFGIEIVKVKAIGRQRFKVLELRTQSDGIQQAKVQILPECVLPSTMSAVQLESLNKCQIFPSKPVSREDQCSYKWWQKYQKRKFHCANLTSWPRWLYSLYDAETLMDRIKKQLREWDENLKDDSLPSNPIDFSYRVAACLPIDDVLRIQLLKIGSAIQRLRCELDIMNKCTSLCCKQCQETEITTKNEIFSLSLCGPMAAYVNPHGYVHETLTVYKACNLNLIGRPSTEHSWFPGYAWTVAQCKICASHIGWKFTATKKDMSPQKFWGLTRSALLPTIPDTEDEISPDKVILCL
Sequence of ZBTB7A (Zinc Finger And BTB Domain Containing 7A) (Q16531 whole entry partner, the tested form may be a part): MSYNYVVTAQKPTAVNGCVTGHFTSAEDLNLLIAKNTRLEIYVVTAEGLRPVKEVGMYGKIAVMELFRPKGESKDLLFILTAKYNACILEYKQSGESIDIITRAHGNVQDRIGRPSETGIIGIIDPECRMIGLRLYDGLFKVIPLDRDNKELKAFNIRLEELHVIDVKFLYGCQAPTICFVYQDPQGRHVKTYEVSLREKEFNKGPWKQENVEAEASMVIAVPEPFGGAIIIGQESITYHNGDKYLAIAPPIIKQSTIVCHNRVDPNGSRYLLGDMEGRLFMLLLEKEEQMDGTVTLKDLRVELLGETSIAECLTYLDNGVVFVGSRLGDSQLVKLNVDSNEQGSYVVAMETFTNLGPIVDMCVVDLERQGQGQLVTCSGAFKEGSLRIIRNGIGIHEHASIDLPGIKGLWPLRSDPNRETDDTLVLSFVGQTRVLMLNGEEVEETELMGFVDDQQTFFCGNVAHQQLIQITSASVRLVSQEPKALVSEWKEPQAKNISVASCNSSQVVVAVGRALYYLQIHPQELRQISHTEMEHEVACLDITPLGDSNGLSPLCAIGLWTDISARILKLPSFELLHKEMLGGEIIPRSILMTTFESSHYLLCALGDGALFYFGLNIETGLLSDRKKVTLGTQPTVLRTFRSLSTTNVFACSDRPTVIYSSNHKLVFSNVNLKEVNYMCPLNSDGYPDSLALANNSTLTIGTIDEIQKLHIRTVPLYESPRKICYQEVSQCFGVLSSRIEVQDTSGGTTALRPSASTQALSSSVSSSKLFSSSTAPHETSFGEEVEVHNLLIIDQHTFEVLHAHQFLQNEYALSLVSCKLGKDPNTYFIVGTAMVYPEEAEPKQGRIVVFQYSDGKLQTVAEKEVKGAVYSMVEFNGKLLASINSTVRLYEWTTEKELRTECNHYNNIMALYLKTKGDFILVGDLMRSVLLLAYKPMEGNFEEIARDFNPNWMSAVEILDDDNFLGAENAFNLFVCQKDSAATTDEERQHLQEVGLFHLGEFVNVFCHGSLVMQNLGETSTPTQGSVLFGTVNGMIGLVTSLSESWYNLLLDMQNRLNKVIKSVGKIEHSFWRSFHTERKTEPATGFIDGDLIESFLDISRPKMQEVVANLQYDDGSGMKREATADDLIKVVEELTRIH
Sequence of WIZ (Widely interspaced zinc finger) (O95785 whole entry, the tested form may be a part): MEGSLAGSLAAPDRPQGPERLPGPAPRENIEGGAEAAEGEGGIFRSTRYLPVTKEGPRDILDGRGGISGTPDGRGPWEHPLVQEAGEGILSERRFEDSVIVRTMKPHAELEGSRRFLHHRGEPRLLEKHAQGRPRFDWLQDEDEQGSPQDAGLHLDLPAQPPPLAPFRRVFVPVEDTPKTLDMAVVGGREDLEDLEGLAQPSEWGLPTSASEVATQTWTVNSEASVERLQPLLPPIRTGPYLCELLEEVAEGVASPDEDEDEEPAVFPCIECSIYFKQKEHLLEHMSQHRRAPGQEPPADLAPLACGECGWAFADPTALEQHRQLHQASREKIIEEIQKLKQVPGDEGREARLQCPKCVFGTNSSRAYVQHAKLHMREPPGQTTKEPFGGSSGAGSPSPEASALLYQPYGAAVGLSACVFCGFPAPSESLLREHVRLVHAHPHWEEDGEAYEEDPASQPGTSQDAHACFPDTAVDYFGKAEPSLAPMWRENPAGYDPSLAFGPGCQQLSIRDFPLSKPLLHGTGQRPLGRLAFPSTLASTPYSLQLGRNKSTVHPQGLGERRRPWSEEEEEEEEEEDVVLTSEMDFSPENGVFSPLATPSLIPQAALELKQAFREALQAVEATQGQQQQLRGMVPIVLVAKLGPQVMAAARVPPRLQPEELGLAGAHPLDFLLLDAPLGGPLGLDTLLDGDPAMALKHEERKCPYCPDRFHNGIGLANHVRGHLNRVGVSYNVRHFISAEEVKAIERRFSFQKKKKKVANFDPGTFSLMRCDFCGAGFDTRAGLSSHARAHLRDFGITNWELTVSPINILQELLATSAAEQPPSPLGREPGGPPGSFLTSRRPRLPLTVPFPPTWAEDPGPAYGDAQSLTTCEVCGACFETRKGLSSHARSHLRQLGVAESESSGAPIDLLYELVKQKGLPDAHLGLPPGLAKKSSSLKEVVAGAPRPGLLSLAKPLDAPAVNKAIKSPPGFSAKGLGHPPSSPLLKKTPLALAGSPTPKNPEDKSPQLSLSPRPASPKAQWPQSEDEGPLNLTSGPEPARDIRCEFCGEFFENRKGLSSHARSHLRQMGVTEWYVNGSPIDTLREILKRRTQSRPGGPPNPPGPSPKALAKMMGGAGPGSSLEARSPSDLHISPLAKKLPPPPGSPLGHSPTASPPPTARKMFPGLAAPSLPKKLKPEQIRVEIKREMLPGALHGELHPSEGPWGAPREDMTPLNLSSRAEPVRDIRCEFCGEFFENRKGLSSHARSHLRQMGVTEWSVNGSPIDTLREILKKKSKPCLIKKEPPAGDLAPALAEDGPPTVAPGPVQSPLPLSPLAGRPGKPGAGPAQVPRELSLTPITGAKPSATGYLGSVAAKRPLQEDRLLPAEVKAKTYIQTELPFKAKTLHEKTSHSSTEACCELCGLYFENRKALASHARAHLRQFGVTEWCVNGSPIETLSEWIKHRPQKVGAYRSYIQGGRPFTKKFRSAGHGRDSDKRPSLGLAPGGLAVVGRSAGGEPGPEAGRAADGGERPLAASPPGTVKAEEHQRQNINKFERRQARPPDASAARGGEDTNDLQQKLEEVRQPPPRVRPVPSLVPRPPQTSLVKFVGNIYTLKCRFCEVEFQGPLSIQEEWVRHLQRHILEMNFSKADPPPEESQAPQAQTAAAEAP
Sequence of WIZ (Widely interspaced zinc finger) (Q96SW2 whole entry, the tested form may be a part): as the sequence (Q96SW2 whole entry, the tested form may be a part) above
Sequence of WIZ (Widely interspaced zinc finger) (Q16531 whole entry partner, the tested form may be a part): as the sequence (Q16531 whole entry partner, the tested form may be a part) above

SMILES | activation at 1 µM [1] [%] | DC50 [2] [nM] | DC50 [3] [nM] | EC50 [3] [nM] | EC50 [2] [nM]
Cc1cc(-c2cc3ncn(C4CC4)c3cc2Nc2cccc3c2C(=O)N(C2CCC(=O)NC2=O)C3=O)ccn1 (stereo not drawn) [Compound 2, 4-((1-cyclopropyl-5-(2-methylpyridin-4-yl)-1H-benzo[d]imidazol-6-yl)amino)-2-(2,6-dioxopiperidin-3-yl)isoindoline-1,3-dione] | 66 to 100 | < 10 | < 30 | – | –
Cc1cc(-c2cc3c(cc2Nc2cccc4c2C(=O)N(C2CCC(=O)NC2=O)C4=O)c(C)nn3C)ccn1 (stereo not drawn) [Compound 3, 4-((1,3-dimethyl-6-(2-methylpyridin-4-yl)-1H-indazol-5-yl)amino)-2-(2,6-dioxopiperidin-3-yl)isoindoline-1,3-dione] | 66 to 100 | 10 to 100 | – | < 30 | –
Cc1cc(-c2cc3c(cnn3C3CCOCC3)cc2Nc2cccc3c2C(=O)N(C2CCC(=O)NC2=O)C3=O)ccn1 (stereo not drawn) [Compound 4, 2-(2,6-dioxopiperidin-3-yl)-4-((6-(2-methylpyridin-4-yl)-1-(tetrahydro-2H-pyran-4-yl)-1H-indazol-5-yl)amino)isoindoline-1,3-dione] | 66 to 100 | 10 to 100 | 30 to 100 | – | –
COc1ccc(-c2cc3ncn(C)c3cc2Nc2cccc3c2C(=O)N(C2CCC(=O)NC2=O)C3=O)cc1F (stereo not drawn) [Compound 5, 2-(2,6-dioxopiperidin-3-yl)-4-((5-(3-fluoro-4-methoxyphenyl)-1-methyl-1H-benzo[d]imidazol-6-yl)amino)isoindoline-1,3-dione] | 66 to 100 | 10 to 100 | 30 to 100 | – | –
Cc1cccc(F)c1Oc1ccc2c(cnn2C)c1Nc1cccc2c1C(=O)N(C1CCC(=O)NC1=O)C2=O (stereo not drawn) [Compound 6, 2-(2,6-dioxopiperidin-3-yl)-4-((5-(2-fluoro-6-methylphenoxy)-1-methyl-1H-indazol-4-yl)amino)isoindoline-1,3-dione] | 66 to 100 | – | 30 to 100 | – | < 10
Cc1cc(-c2cc3cnn(C)c3cc2Nc2cccc3c2C(=O)N(C2CCC(=O)NC2=O)C3=O)ccn1 (stereo not drawn) [Compound 7, 2-(2,6-dioxopiperidin-3-yl)-4-((1-methyl-5-(2-methylpyridin-4-yl)-1H-indazol-6-yl)amino)isoindoline-1,3-dione] | 66 to 100 | 10 to 100 | 30 to 100 | – | –
Cc1cc(-c2cc3onc(C)c3cc2Nc2cccc3c2C(=O)N(C2CCC(=O)NC2=O)C3=O)ccn1 (stereo not drawn) [Compound 8, 2-(2,6-dioxopiperidin-3-yl)-4-((3-methyl-6-(2-methylpyridin-4-yl)benzo[d]isoxazol-5-yl)amino)isoindoline-1,3-dione] | 66 to 100 | 10 to 100 | 30 to 100 | – | –
CN(C)CCOc1cc(Oc2ccccc2)c(Nc2cccc3c2C(=O)N(C2CCC(=O)NC2=O)C3=O)cn1 (stereo not drawn) [Compound 9, 4-((6-(2-(dimethylamino)ethoxy)-4-phenoxypyridin-3-yl)amino)-2-(2,6-dioxopiperidin-3-yl)isoindoline-1,3-dione] | 66 to 100 | – | 30 to 100 | – | < 10
O=C1CCC(N2C(=O)c3cccc(Nc4cc5cnn(C6CCOCC6)c5cc4C4CC4)c3C2=O)C(=O)N1 (stereo not drawn) [Compound 10, 4-((6-cyclopropyl-1-(tetrahydro-2H-pyran-4-yl)-1H-indazol-5-yl)amino)-2-(2,6-dioxopiperidin-3-yl)isoindoline-1,3-dione] | 66 to 100 | – | – | > 100 | < 10
O=C1CCC(N2C(=O)c3cccc(Nc4cc5cnn(C6CCOCC6)c5cc4-c4ccnc(C(F)F)c4)c3C2=O)C(=O)N1 (stereo not drawn) [Compound 11, 4-((6-(2-(difluoromethyl)pyridin-4-yl)-1-(tetrahydro-2H-pyran-4-yl)-1H-indazol-5-yl)amino)-2-(2,6-dioxopiperidin-3-yl)isoindoline-1,3-dione] | 66 to 100 | > 100 | – | > 100 | –
COc1cc(OCCN2CCCCC2)ccc1Nc1cccc2c1C(=O)N(C1CCC(=O)NC1=O)C2=O (stereo not drawn) [Compound 12, 2-(2,6-dioxopiperidin-3-yl)-4-((2-methoxy-4-(2-(piperidin-1-yl)ethoxy)phenyl)amino)isoindoline-1,3-dione] | 66 to 100 | – | 30 to 100 | – | < 10
O=C1CCC(N2C(=O)c3cccc(Nc4c(Oc5ccccc5Cl)ccc5c4cnn5C4CCOCC4)c3C2=O)C(=O)N1 (stereo not drawn) [Compound 13, 4-((5-(2-chlorophenoxy)-1-(tetrahydro-2H-pyran-4-yl)-1H-indazol-4-yl)amino)-2-(2,6-dioxopiperidin-3-yl)isoindoline-1,3-dione] | 66 to 100 | 10 to 100 | 30 to 100 | – | –
